Tests used:
CAR-γδT cells = test: In vitro mixed lymphoid (MLR) model with CAR-γδT cells, UnT and U937 cells: graft CAR-γδT cells; type: cell-based, human; details: 0.05 μM and 0.5 μM MTX
Method: (§1) To evaluate the ability of γδ T cells to tolerate allogeneic T cell rejection, an in vitro mixed lymphoid (MLR) model was established.
(§2) Using the T cells from a random healthy donor (B donor), CAR-γδT cells were prepared following the method in Example 1, as the graft cells. Un-transduced T cells (UnT) from another random healthy donor (T cell donor A) were also prepared, as the host cells.
(§3) The density of CLL1 positive human lymphoma cells (U937) was adjusted to 1×10^6 cells/mL. U937 cells were treated with 20 μg/mL mitomycin at 37° C. for 3 h, washed three times with 10 mL DPBS, and suspended in the culture medium. 20×10^6 untransduced T cells (UnT, T cell donor A), 1×10^6 CAR-γδT cells (T cell donor B), and 5×10^6 treated human lymphoma cells U937 were mixed and cultured in the medium. The cell mixture was divided into 3 groups, and 0 μM, 0.05 μM MTX, or 0.5 μM MTX was added, respectively. […] CAR-γδT cells were stimulated repeatedly with U937 cells at day0, day4, day7 at an E/T ratio of 1:1 According to the formula: fold change of cell number (UnT)=[cell number counted by AOPI×(CD3-/TCR VY9+%)]/20, fold change of cell number (CAR-γδT)=[cell number counted by AOPI×(CD3+/TCR Vγ9+%)]/1, the cell proliferation curves of UnT and CAR-γδT cells were plotted.

[1] = tested on: untransduced T cells (UnT); test: In vitro mixed lymphoid (MLR) model with CAR-γδT cells, UnT and U937 cells: host UnT cells; type: cell-based, human; details: 0.05 μM and 0.5 μM MTX; mixed culture with CAR-γδT and U937 cells
Method: as §1, §2, §3

[2] = tested on: untransduced T cells (UnT); test: In vitro mixed lymphoid (MLR) model with LUCAR-20SD cells, UnT and Raji cells: host UnT cells; type: cell-based, human; details: 0.05 μM, 1 μM, 2 μM MTX
Method: (§4) To evaluate the ability of LUCAR-20SD cells to tolerate allogeneic T cell rejection, an in vitro mixed lymphoid (MLR) model was established.
(§5) Using the T cells from a random healthy donor (B donor), LUCAR-20SD cells were prepared following the method in Example 1, as the graft cells. Un-transduced T cells (UnT) from another random healthy donor (Adonor) were also prepared, as the host cells.
(§6) The cell density of CD20 positive cells (lymphoma cell lines Raji, ATCC, CCL-86) was adjusted to 1×10^6 cells/mL. Raji cells were treated with 20 μg/mL mitomycin at 37° C. for 3 h, washed three times with 10 mL DPBS, and were resuspended in the culture medium. 20×10^6 untransduced T cells (UnT, T cell donor A), 1×10^6 LUCAR-20SD cells (T cell donor B), and 5×10^6 treated lymphoma cells Raji were mixed and cultured in the medium. The cell mixture was divided into 4 groups, and 0 μM MTX, 0.05 μM MTX, 1 μM MTX, or 2 μM MTX was added, respectively. […] According to the formula: fold change of cell number (UnT)=[cell number counted by AOPI×(CAR-CD5+%)]/20, fold change of cell number (LUCAR-20SD cells)=[cell number counted by AOPI×(CAR+CD5+%)]/1, the cell proliferation curves of UnT and LUCAR-20SD cells were plotted.

LUCAR-20SD cells = test: In vitro mixed lymphoid (MLR) model with LUCAR-20SD cells, UnT and Raji cells: graft LUCAR-20SD cells; type: cell-based, human; details: 0.05 μM, 1 μM, 2 μM MTX
Method: as §4, §5, §6

[3] = tested on: human gastric cancer cells NUGC4; test: In vivo efficacy in subcutaneous NUGC4 gastric cancer xenograft model, tumor volume; set-up: species or system NCG immunodeficient mice; human tumor cells; details: G5, 22.635 mg/kg MTX alone i.p., day5 to day35, p>0.05
Description: Refer to Example 1, the fusion gene sequence of SIV Nef M116-IRES-CD8α SP Claudin18.2 VHH-CD8α Hinge-CD8α TM-4-1BB-ITAM010 (SEQ ID NO: 5) was cloned into the expression plasmid pLVX-hEF1α to form the M1645 expression plasmid. The anti-Claudin18.2 VHH, as well as the antigen binding domain of CAR, have been disclosed in PCT/CN2020/139143. TGB23-6-IRES-DHFR L22F/F31S (SEQ ID NO: 7) was cloned into the expression plasmid pLVX-hEF1α to form the M1647 expression plasmid. The fusion protein of TGB23-6 is a signal converter, and has been described in PCT/CN2022/087016. To obtain LUCAR-GC cells, M1645 and M1647 were transduced into T cells. The production of Virus vector and the transduction of primary T were completed with reference to Example 1.
Severely immunodeficient NCG mice were used for in vivo efficacy evaluation. On day −14 before treatment, NCG immunodeficient mice were inoculated subcutaneously with tumor cells (3×10^6 human gastric cancer cells NUGC4/mouse). […] During the experiment, animal status, survival, tumor volume and body weight were measured twice a week. […] The proportion of transplanted cells (hCD45+%/live) in the peripheral blood of mice was counted.

LUCAR-GC cells = test: Expansion of transplanted LUCAR-GC cells in peripheral blood of NUGC4 xenograft mice (hCD45+%/live); type: in vivo, NCG immunodeficient mice; human cells; details: 22.635 mg/kg MTX i.p.
Description: Severely immunodeficient NCG mice were used for in vivo efficacy evaluation. On day −14 before treatment, NCG immunodeficient mice were inoculated subcutaneously with tumor cells (3×10^6 human gastric cancer cells NUGC4/mouse). The xenografted mice were divided into 5 groups ([…], G3, G4 and G5) on day 0, and received a single intravenous injection of HBSS (G1, G5), untransduced T cells (UnT) (G2, at a dose of 3.6×10^6 cells/mouse), LUCAR-GC cell preparation (G3 and G4, at a dose of 1×10^6 CAR+ cells/mouse). Mice in G4 and G5 groups were additionally given 22.635 mg/kg MTX by intraperitoneal injection on day5, day10, day 15, day20, day25, day30, day35, respectively. […] During the experiment, animal status, survival, tumor volume and body weight were measured twice a week. Blood was collected from the mouse eyeballs every week to separate cells, and then resuspended in DPBS with 1 μL of FITC anti human CD45 (Biolegend, 304038). The proportion of transplanted cells (hCD45+%/live) in the peripheral blood of mice was counted.

CN(Cc1cnc2nc(N)nc(N)c2n1)c1ccc(C(=O)N[C@@H](CCC(=O)O)C(=O)O)cc1 [MTX, methotrexate]
protective effect on heterologous CAR-γδT cells (CAR-γδT cells): good protective effect on heterologous CAR-γδT cells
proliferation of UnT cells [1]: significantly inhibited
fold change of cell number (UnT) ([2]; day 1 to day 13): less than 1
proliferation of UnT cells ([2]; mixed culture with LUCAR-20SD and Raji cells): significantly inhibited
protective effect on heterologous LUCAR-20SD cells (LUCAR-20SD cells): good protective effect on heterologous LUCAR-20SD cells
tumor volume compared with control G1 and G2 [3]: not significantly different
expansion of LUCAR-GC cells in peripheral blood, presence or absence of MTX (LUCAR-GC cells): no significant difference in the expansion of LUCAR-GC cells

Source: patent US20260345609A1, “METHODS FOR PROMOTING PERSISTENCE OF CELL THERAPY” (Legend Biotech Ireland Limited, priority 2022, published 2026)
